Test results published in patent publication US5840893A, “Compounds for treating infectious diseases” (priority 1996, dated 1998).

Tests used:
HIV-1 = assay: AZT and Compound No. 2 in combination on HIV-1 infected monocyte cultures (RT activity); type: cell-based, HIV-1 in human monocyte cultures; details: for RT activity: 100 nM Compound No. 2, AZT 0
Protocol: Primary human monocytes were obtained from peripheral blood by Ficoll-Hypaque centrifugation and adherence to plastic as described previously. Gartner S. P., et al., 1986, Science 233:215. Briefly, after Ficoll-Hypaque (Pharmacia) separation, PBMCs were washed 4 times with DMEM (the last wash was done at 800 rpm to remove platelets) and resuspended in monocyte culture medium [DMEM supplemented with 1 mM glutamine, 10% heat-inactivated human serum, 1% penicillin+streptomycin mixture (Sigma)] at a density of 6×10^6 cells/ml. Cells were seeded in 24-well plates (1 ml per well) and incubated for 2 h at 37° C., 5% CO2. Following incubation, cells were washed 3 times with DMEM to remove non-adherent cells and incubation was continued in monocyte culture medium supplemented with 250 U/ml human M-CSF (Sigma). Cells were allowed to mature for 7 days prior to infection with the monocyte-tropic strain, HIV-1ADA. Nuovo, G. J., et al., 1992, Diagn. Mol. Pathol. 1:98. Two hours after infection, cells were washed with medium and cultured in RPMI supplemented with 10% human serum. In experiments where PCR analysis was performed, virus was pretreated with RNAse-free DNAse (Boehinger-Mannheim)for 2 h at room temperature and then filtered though a 0.2 μm pore nitrocellulose filter prior to infection.
For the reverse transcriptase (RT) assay, 10 μl of culture supernatant was added to 40 μl of reaction mixture (final composition was 50 mM Tris-HCl, pH 7.8; 20 mM KCl; 5 mM MgCl2; 1 mM DTT; 0.1% Triton X-100; 0.2 OD/ml polyA; 0.2 OD/ml oligo(dT)12-18; and 40 μCi/ml ^3 H-dTTP (76 Ci/mmol, DuPont) and incubated 2 hr at 37° C. 5 μl of the reaction mixture was then spotted onto the DE 81 (Whatman) paper. Paper was air dried and washed 5 times with 5% Na2 HPO4, followed by rinsing with distilled water. After air drying, paper was put on a Flexi Filter plate (Packard), covered with scintillation fluid and counted in a Top Count Microplate Counter (Packard). Results are expressed as counts per minute in 1 ml of supernatant (cpm/ml).
In view of these premises, the effects on HIV-1 replication in human monocyte cultures of the various concentrations of AZT, alone or in combination with 100 nM Compound No. 2, were tested using the protocols of Sections 6.2.1 and 6.2.2. Drugs were added to the monocyte cultures together with HIV-1 at about 10^5 TCID/ml. The concentration of drugs was maintained on refeeding. HIV-1 replication was assessed by assay of the supernatant for reverse transcriptase activity. The results are expressed as mean±std. dev. (cpmx10^-3) in Table V.

[1] = system: nuclear importation of HIV-1 preintegration complexes; assay: Nuclear importation of HIV-1 preintegration complexes (2-LTR circle PCR) in primary human monocytes; type: cell-based, HIV-1ADA in primary human monocytes; details: Monocyte, 100 nM, 48 and 96 hours post infection
Excerpt: The effects of Compound No. 2 on the nuclear importation of HIV-1 preintegration complexes can be directly measured by detecting the presence of circularized duplex HIV-1 genomic DNA. These duplex circles can be readily detected by PCR amplification using primers which span the junction of the circularized HIV-1 genome. Bukrinsky, M. I., et al., 1992, Proc.Natl.Acad.Sci. 89:6580-84.
Briefly, the efficiency of nuclear translocation was estimated by the ratio between the 2-LTR- and pol-specific PCR products, which reflects the portion of 2-LTR circle DNA molecules as a fraction of the entire pool of intracellular HIV-1 DNA. Viral 2-LTR circle DNA is formed exclusively within the nucleus of infected cells and thus is a convenient marker of successful nuclear translocation. […]
Total DNA was extracted from HIV-1-infected cells using the IsoQuick extraction kit (Microprobe Corp., Garden Grove, Calif.). DNA was then analyzed by PCR using primer pairs that amplify the following sequences: a fragment of HIV-1 (LTR/gag) that is the last one to be synthesized during reverse transcription and therefore represents the pool of full-length viral DNA molecules; a fragment of polymerase gene (pol); a 2-LTR junction region found only in HIV-1 2-LTR circle DNA molecules; or a fragment of the cellular a-tubulin gene. […]

`CC(=O)c1cc(Nc2cc(C)[n+](C)c(N)n2)cc(C(C)=O)c1.[I-]` [Compound No. 2, 2-amino-4-(3,5-diacetylphenyl)amino-1,6-dimethylpyrimidinium iodide] showed an inhibition at 0.1 µM (HIV-1; Human immunodeficiency virus 1, Monocyte, 264 h, day-11, 100 nM Compound No. 2 alone, read-out: reduction in RT activity) of about 60%, an RT activity (HIV-1; day-7) of 0.37 ± 0.07 cpmx10^-3 and an RT activity (HIV-1; day-11) of 0.72 ± 0.30 cpmx10^-3. The inhibition at 0.1 µM [1] was over 90% and the activity at 0.1 µM ([1]; relative to drug free control, read-out: Translocation Index) was under 10%.
